Measured values taken from patent publication US7220425B2, “Method for therapy of liver tumors” (Federalnoe Gosudarstvennoe Unitarnoe Predpriyatie …, priority 2000, dated 2007).

Experiments:
Assay type in all cases: in vivo, rats
[1] = Effect of length of occlusion of afferent and abducent vessels on accumulation of Teraphtalum; conditions: for Content of Teraphtalum: 35 min after administration
Method: (§1) Practically speaking, the method is carried out in the following manner. A median laparotomy is conducted, afferent (a branch of the portal vein and hepatic artery) and efferent (a branch of the hepatic vein) vessels of the target lobe of the liver are isolated. They are taken on tourniquets. A puncture of the branch of the portal vein is made, the preparation is introduced therein, simultaneously stopping the flow of blood: the blood inflow—through branches of the portal vein (proximal to the place of puncture) and the hepatic artery, outflow—through a branch of the hepatic vein. Restoration of the blood flow is accomplished by removing clamps from the vessels 5–15 minutes after administration of the preparation.
(§2) Teraphtalum in a dose of 60 or 300 μg per rat in the form of 0.6 ml of a 0.01 and 0.05% solution was administered into a branch of the portal vein of a target lobe of the liver.
The results of a study of the effect of the length of the period of occlusion of the afferent and abducent vessels of the target lobe of the liver on the accumulation of TP therein are presented in Table 3.

[2] = Distribution of Teraphtalum with the proposed regional method (branch of portal vein of target lobe with occlusion); conditions: for Content of Teraphtalum: proposed method, 0.3 mg (0.6 ml, 0.01% solution), healthy rats
Method: as §1
(§3) The studies were carried out on mongrel rats weighing 150 g, obtained from the N. V. Blokhin ONTs breeder and contained in the vivarium of that center.
as §2
Accumulation of the preparation in the target lobe (subjected to occlusion), in the intact lobe of the liver (not subjected to occlusion) and also in the blood plasma were studied 5, 35 and 240 minutes after administration of the preparation by the proposed method.

[3] = Distribution of Teraphtalum with the known regional administration (general trunk of portal vein); conditions: known regional method, 5 mg/kg
Method: as §3
Teraphtalum (TP) was administered once into the general trunk of the portal vein in a dose of 5 mg/kg (this was 1 mg of TP for a rat weighing 200 g). Accumulation of the preparation in the liver, lungs and its level in blood plasma were evaluated by the spectrophotometric method 5, 35 and 240 minutes after the administration.

- Content of Teraphtalum ([1]; blood plasma, control = selective administration without occlusion): 6 µg/g
- Content of Teraphtalum ([1]; blood plasma, occlusion 5 min, 0.3 mg (0.6 ml of 0.01% solution), proposed method): 5 µg/g
- Content of Teraphtalum ([1]; blood plasma, occlusion 15 min, 0.3 mg (0.6 ml of 0.01% solution), proposed method): 7 µg/g
- Content of TP ([1]; intact lobe of liver as worded in text, without occlusion (control), 30 minutes after administration): 20 µg/g
- Content of Teraphtalum ([1]; intact lobe of liver, occlusion 5 min, 0.3 mg (0.6 ml of 0.01% solution), proposed method): 7 µg/g
- Content of Teraphtalum ([1]; intact lobe of liver, occlusion 15 min, 0.3 mg (0.6 ml of 0.01% solution), proposed method): 6 µg/g
- Content of Teraphtalum ([1]; intact lobe, control = selective administration without occlusion): 17 µg/g
- Content of Teraphtalum ([1]; target lobe of liver, occlusion 5 min, 0.3 mg (0.6 ml of 0.01% solution), proposed method): 35 µg/g
- Content of Teraphtalum ([1]; target lobe of liver, occlusion 15 min, 0.3 mg (0.6 ml of 0.01% solution), proposed method): 35 µg/g
- Content of Teraphtalum ([1]; target lobe, control = selective administration without occlusion): 20 µg/g
- Content of TP ([1]; that (target) lobe as worded in text, without occlusion (control), 30 minutes after administration): 17 µg/g
- Level of TP in the plasma ([1]; without occlusion (control), 30 minutes after administration): 6 μg/g of untreated tissue
- Concentration of TP in target lobe of liver, proposed method versus known regional method ([2]; first minutes after administration, dose in proposed method 16.5 times less): 2 times higher
- Content of Teraphtalum ([2]; intact lobe of liver, 5 min): 7 μg/g of untreated tissue
- Content of Teraphtalum ([2]; intact lobe of liver, 35 min): 5 μg/g of untreated tissue
- Content of Teraphtalum ([2]; intact lobe of liver, 240 min): 9 μg/g of untreated tissue
- Content of Teraphtalum ([2]; plasma, 5 min): 3 μg/g of untreated tissue
- Content of Teraphtalum ([2]; target lobe of liver, 5 min): 30 μg/g of untreated tissue
- Content of Teraphtalum ([2]; target lobe of liver, 35 min): 33 μg/g of untreated tissue
- Content of Teraphtalum ([2]; target lobe of liver, 240 min): 48 μg/g of untreated tissue
- Content of Teraphtalum ([3]; liver, 5 min after administration): 15 μg/g of untreated tissue
- Content of Teraphtalum ([3]; liver, 35 min after administration): 60 μg/g of untreated tissue
- Content of Teraphtalum ([3]; liver, 240 min after administration): 51 μg/g of untreated tissue
- Content of Teraphtalum ([3]; lungs, 5 min after administration): 46 μg/g of untreated tissue
- Content of Teraphtalum ([3]; lungs, 35 min after administration): 28 μg/g of untreated tissue
- Content of Teraphtalum ([3]; lungs, 240 min after administration): 57 μg/g of untreated tissue
- Content of Teraphtalum ([3]; plasma, 5 min after administration): 92.4 μg/g of untreated tissue
- Content of Teraphtalum ([3]; plasma, 35 min after administration): 39.6 μg/g of untreated tissue
- Content of Teraphtalum ([3]; plasma, 240 min after administration): 14.4 μg/g of untreated tissue
Compound: O=C(O)c1cc2c(cc1C(=O)O)C1=Nc3c4cc(C(=O)O)c(C(=O)O)cc4c4[n]3[Co][n]3c(c5cc(C(=O)O)c(C(=O)O)cc5c3=NC3=NC(=N4)c4cc(C(=O)O)c(C(=O)O)cc43)=NC2=N1 [Teraphtalum, cobalt octacarboxy phthalocyanine]
